# Test results as given in patent US9446039B2, “Aminoheteroaryl compounds as MTH1 inhibitors” (CEMM—FORSCHUNGSZENTRUM FÜR MOLEKULARE MEDIZIN GMBH, priority 2012, dated 2016).
# Legend:
# Type in all cases: binding
# [1] = target: T1, SW480 colon carcinoma cells lysate proteins (Homo sapiens, UniProt Q07021); conditions: PreyGene C1QBP
# T1 sequence (Q07021 74-282): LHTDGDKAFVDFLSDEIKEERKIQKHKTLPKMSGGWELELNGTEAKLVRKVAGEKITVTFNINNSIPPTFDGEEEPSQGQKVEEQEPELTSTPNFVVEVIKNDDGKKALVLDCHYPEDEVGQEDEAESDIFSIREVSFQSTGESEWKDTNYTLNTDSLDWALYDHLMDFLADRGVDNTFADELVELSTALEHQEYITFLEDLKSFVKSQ
# [2] = target: T2, SW480 colon carcinoma cells lysate proteins (Homo sapiens, UniProt P54577); conditions: PreyGene YARS
# T2 sequence (P54577 1-528): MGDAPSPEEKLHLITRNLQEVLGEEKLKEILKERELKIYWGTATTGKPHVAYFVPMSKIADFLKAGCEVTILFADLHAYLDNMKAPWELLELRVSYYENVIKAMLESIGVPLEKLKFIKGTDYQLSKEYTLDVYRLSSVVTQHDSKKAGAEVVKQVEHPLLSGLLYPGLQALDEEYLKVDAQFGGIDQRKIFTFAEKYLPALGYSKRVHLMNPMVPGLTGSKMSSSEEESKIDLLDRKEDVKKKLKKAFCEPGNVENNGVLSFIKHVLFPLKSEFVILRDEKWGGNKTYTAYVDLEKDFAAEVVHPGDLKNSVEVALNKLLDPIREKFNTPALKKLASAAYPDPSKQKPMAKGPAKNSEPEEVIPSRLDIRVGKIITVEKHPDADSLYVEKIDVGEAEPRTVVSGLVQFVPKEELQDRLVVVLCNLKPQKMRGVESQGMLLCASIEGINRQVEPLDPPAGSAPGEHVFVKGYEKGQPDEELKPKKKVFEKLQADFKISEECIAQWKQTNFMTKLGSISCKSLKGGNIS
# [3] = target: SW480 colon carcinoma cells lysate proteins (Homo sapiens, UniProt P00441); conditions: PreyGene SOD1
# Sequence of SW480 colon carcinoma cells lysate proteins (Homo sapiens, UniProt P00441) (P00441 whole entry): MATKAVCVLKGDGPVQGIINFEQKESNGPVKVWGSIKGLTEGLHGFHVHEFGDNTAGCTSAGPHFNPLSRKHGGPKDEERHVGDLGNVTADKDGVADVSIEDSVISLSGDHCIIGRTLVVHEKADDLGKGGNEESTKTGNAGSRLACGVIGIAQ
# [4] = target: T3, SW480 colon carcinoma cells lysate proteins (Homo sapiens, UniProt Q8NC51); conditions: PreyGene SERBP1; SW480 cells
# T3 sequence (Q8NC51 1-408): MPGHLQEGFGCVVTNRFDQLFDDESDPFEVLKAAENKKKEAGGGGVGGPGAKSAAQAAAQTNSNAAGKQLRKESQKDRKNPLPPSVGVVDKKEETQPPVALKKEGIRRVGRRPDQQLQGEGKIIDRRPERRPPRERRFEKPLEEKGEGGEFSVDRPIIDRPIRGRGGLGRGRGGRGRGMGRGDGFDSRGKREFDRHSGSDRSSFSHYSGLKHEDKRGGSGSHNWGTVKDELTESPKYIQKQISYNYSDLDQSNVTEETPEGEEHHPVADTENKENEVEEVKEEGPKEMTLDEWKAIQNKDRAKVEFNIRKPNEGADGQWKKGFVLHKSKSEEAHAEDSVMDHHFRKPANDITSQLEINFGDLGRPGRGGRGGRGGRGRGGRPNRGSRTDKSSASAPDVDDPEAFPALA
# [5] = target: SW480 colon carcinoma cells lysate proteins (Homo sapiens, UniProt Q9BVA1); conditions: PreyGene TUBB2B; SW480 cells
# Sequence of SW480 colon carcinoma cells lysate proteins (Homo sapiens, UniProt Q9BVA1) (Q9BVA1 whole entry): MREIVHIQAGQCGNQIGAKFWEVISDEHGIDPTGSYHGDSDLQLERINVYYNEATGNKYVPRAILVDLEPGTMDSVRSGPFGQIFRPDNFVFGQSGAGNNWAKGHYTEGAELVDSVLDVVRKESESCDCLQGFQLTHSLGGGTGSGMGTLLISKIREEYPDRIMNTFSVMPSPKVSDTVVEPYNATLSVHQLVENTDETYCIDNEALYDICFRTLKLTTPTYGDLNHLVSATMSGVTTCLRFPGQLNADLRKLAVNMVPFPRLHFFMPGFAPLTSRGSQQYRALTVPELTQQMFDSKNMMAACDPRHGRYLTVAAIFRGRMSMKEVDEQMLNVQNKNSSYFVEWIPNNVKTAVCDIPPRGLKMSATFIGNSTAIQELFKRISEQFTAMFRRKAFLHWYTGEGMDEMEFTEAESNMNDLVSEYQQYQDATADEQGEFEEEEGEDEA
# [6] = target: SW480 colon carcinoma cells lysate proteins (Homo sapiens, UniProt P68363); conditions: PreyGene TUBA1B; SW480 cells
# Sequence of SW480 colon carcinoma cells lysate proteins (Homo sapiens, UniProt P68363) (P68363 whole entry): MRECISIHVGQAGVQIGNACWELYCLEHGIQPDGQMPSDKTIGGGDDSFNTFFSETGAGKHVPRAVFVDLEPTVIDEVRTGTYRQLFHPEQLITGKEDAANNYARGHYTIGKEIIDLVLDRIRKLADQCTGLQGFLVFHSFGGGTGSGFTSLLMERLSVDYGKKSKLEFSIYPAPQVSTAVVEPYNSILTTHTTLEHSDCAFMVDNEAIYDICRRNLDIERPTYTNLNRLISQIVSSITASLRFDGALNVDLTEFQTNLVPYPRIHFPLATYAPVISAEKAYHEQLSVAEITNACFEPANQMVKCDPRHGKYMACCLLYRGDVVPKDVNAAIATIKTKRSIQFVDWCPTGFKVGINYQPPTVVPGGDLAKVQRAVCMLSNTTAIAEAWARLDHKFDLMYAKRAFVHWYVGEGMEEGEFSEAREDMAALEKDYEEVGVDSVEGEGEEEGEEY
# [7] = target: SW480 colon carcinoma cells lysate proteins (Homo sapiens, UniProt O43707); conditions: PreyGene ACTN4
# Sequence of SW480 colon carcinoma cells lysate proteins (Homo sapiens, UniProt O43707) (O43707 whole entry): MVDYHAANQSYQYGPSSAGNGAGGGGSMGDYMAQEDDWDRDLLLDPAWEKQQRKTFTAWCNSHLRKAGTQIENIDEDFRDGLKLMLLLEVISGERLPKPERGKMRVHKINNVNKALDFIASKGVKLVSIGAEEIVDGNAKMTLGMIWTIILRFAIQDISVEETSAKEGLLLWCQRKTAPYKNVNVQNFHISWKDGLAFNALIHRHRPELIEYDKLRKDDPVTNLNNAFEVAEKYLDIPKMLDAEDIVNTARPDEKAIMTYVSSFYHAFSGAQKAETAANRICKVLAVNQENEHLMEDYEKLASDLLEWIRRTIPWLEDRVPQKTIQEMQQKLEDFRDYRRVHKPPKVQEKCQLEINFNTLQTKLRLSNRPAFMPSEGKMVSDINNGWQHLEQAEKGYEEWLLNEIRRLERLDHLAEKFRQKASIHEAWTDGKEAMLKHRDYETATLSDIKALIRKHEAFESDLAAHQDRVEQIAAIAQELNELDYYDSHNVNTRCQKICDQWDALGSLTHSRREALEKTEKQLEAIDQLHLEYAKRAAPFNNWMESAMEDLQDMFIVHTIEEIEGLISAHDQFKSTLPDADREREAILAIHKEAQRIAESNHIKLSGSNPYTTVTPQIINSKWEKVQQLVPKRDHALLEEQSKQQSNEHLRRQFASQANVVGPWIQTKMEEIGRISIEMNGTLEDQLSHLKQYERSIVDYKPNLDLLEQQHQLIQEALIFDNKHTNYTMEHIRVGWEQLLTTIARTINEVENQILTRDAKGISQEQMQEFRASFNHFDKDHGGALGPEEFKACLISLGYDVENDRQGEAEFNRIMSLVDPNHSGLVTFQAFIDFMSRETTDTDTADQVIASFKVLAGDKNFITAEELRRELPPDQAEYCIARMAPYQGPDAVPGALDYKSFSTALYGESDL
# [8] = target: SW480 colon carcinoma cells lysate proteins (Homo sapiens, UniProt P30153); conditions: PreyGene PPP2R1A
# Sequence of SW480 colon carcinoma cells lysate proteins (Homo sapiens, UniProt P30153) (P30153 whole entry): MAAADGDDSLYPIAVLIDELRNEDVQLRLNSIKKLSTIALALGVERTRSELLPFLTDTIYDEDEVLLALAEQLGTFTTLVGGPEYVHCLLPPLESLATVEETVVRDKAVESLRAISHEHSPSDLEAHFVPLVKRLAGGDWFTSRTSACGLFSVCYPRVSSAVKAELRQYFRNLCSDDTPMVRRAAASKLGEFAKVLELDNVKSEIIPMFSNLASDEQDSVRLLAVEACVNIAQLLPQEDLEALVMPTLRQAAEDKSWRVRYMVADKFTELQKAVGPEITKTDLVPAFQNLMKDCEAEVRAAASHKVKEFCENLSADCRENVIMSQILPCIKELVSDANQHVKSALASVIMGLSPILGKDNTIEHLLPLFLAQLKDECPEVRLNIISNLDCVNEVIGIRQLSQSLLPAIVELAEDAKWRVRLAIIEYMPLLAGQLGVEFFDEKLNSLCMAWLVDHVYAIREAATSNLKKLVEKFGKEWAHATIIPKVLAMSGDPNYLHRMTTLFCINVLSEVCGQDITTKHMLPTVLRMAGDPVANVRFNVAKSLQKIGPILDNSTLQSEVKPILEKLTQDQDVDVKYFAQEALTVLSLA
# [9] = target: T4, SW480 colon carcinoma cells lysate proteins (Homo sapiens, UniProt Q13126); conditions: PreyGene MTAP; SW480 cells
# T4 sequence (Q13126 1-283): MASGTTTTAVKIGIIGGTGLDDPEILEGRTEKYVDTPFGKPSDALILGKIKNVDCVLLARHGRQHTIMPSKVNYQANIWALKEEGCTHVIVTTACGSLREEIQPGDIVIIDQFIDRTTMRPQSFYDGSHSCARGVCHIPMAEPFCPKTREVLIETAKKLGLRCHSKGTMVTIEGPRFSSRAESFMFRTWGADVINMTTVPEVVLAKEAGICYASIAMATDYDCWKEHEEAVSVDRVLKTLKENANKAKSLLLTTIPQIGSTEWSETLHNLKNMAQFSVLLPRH
# [10] = target: SW480 colon carcinoma cells lysate proteins (Homo sapiens, UniProt Q13200); conditions: PreyGene PSMD2
# Sequence of SW480 colon carcinoma cells lysate proteins (Homo sapiens, UniProt Q13200) (Q13200 whole entry): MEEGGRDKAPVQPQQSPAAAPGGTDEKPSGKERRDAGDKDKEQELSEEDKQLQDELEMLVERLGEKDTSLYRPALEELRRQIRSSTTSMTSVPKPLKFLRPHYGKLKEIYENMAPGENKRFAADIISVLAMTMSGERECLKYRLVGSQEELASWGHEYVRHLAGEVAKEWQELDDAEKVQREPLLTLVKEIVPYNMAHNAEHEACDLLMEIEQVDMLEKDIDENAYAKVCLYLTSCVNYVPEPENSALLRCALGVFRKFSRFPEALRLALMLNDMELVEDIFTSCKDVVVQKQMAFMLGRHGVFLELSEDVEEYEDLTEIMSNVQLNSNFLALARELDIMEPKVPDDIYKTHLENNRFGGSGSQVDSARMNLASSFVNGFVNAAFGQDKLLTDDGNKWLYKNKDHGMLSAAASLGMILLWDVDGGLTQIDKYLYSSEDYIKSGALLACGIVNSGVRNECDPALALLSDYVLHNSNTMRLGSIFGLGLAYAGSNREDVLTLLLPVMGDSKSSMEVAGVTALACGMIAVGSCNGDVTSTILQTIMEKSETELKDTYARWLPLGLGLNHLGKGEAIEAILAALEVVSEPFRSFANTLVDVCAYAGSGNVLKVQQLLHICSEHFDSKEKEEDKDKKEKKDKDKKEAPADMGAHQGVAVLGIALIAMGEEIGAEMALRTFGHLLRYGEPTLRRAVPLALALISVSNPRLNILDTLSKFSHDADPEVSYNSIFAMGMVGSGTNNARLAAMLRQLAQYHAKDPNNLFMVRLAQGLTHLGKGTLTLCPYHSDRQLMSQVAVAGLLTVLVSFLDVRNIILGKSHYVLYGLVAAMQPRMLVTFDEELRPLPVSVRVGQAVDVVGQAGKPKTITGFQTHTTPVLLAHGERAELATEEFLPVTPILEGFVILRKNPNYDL
structure (smiles),measurement,setting,value
C[C@H](Oc1cc(-c2cnn(C3CCNCC3)c2)cnc1N)c1c(Cl)ccc(F)c1Cl [(5)-crizotinib],AvgP,[1],0.33
same,SC.Exp. 1-1,[1],3
same,SC.Exp. 1-2,[1],3
same,SC.Exp. 2-1,[1],0
same,SC.Exp. 2-2,[1],0
same,Sum (SC.Exp.),[1],6
same,AvgP,[2],0.2511
same,SC.Exp. 1-1,[2],2
same,SC.Exp. 1-2,[2],1
same,SC.Exp. 2-1,[2],0
same,SC.Exp. 2-2,[2],0
same,Sum (SC.Exp.),[2],3
same,AvgP,[3],0.3882
same,SC.Exp. 1-1,[3],3
same,SC.Exp. 1-2,[3],3
same,SC.Exp. 2-1,[3],0
same,SC.Exp. 2-2,[3],0
same,Sum (SC.Exp.),[3],6
same,AvgP,[4],0
same,SC.Exp. 1-1,[4],8
same,SC.Exp. 1-2,[4],10
same,SC.Exp. 2-1,[4],5
same,SC.Exp. 2-2,[4],6
same,SC.Exp. Sum,[4],29
same,AvgP,[5],0
same,SC.Exp. 1-1,[5],4
same,SC.Exp. 1-2,[5],3
same,SC.Exp. 2-1,[5],1
same,SC.Exp. 2-2,[5],2
same,SC.Exp. Sum,[5],10
same,AvgP,[6],0
same,SC.Exp. 1-1,[6],1
same,SC.Exp. 1-2,[6],1
same,SC.Exp. 2-1,[6],0
same,SC.Exp. 2-2,[6],0
same,SC.Exp. Sum,[6],2
same,AvgP,[7],0.2923
same,SC.Exp. 1-1,[7],4
same,SC.Exp. 1-2,[7],4
same,SC.Exp. 2-1,[7],0
same,SC.Exp. 2-2,[7],0
same,Sum (SC.Exp.),[7],8
same,AvgP,[8],0.4042
same,SC.Exp. 1-1,[8],3
same,SC.Exp. 1-2,[8],3
same,SC.Exp. 2-1,[8],0
same,SC.Exp. 2-2,[8],0
same,Sum (SC.Exp.),[8],6
same,AvgP,[9],0
same,SC.Exp. 1-1,[9],1
same,SC.Exp. 1-2,[9],1
same,SC.Exp. 2-1,[9],0
same,SC.Exp. 2-2,[9],0
same,SC.Exp. Sum,[9],2
same,AvgP,[10],0.4359
same,SC.Exp. 1-1,[10],6
same,SC.Exp. 1-2,[10],5
same,SC.Exp. 2-1,[10],0
same,SC.Exp. 2-2,[10],0
same,Sum (SC.Exp.),[10],11
